Laboratory results from PubChem BioAssay AID1159565 (GlaxoSmithKline (GSK), 2015).
Active and inactive are the calls of the source. The rule behind the calls is not given here.

Tested on: T. cruzi-infected H9C2 cardiomyocytes, high-content imaging
Assay: intracellular T. cruzi amastigote inhibition, imaging, H9C2 host cardiomyocytes, host toxicity (AID 1159565);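 note: infected cells incubated 72 h after plating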
[1] = measured here: H9C2 host cell toxicity
[2] = measured here: amastigotes per cell

**Q.** How did the IC50 turn out when `CNC(=O)C1Cc2ccccc2N1C(=O)COc1cccc(OC)c1` (stereo not given) was run?
**A.** Its IC50 is > 50 µM (inactive).

**Q.** What about the IC50 [1] of the same compound?
**A.** The IC50 was > 50 µM.

**Q.** What about the IC50 [2] of the same compound?
**A.** The IC50 was > 50 µM.

**Q.** `Cc1cc2nc(N3CC[C@H]3C(N)=O)nc(Nc3cc(C4CC4)[nH]n3)c2s1` was tested. Which IC50 did it give?
**A.** The IC50 was 7.9 µM.

**Q.** And the IC50 [1]?
**A.** The IC50 was 0.5 µM.

**Q.** What about the IC50 [2] of the same compound?
**A.** Its IC50 is 4 µM.

**Q.** `Cc1ccc2c(c1)SC(C(=O)Nc1n[nH]c(-c3ccccn3)n1)C2` (stereo not given) was tested. Which IC50 did it give?
**A.** The IC50 was 7.9 µM.

**Q.** What about the IC50 [1] of the same compound?
**A.** The IC50 was > 50 µM.

**Q.** What about the IC50 [2] of the same compound?
**A.** The IC50 was 6.3 µM.

**Q.** `O=C(NCCNc1noc(-c2ccc([N+](=O)[O-])cc2)n1)c1ccc(Cl)cc1` was tested. Which IC50 did it give?
**A.** Its IC50 is > 50 µM (inactive).

**Q.** And the IC50 [1]?
**A.** Its IC50 is > 50 µM.

**Q.** And the IC50 [2]?
**A.** The IC50 was 1.3 µM.

**Q.** Which results are given for `Cc1[nH]n2c(=O)c3c(nc2c1-c1ccc(Cl)cc1)CCCC3`?
**A.** IC50: 1 µM; IC50 [1]: > 50 µM; IC50 [2]: 0.25 µM

**Q.** Which IC50 does the source give for `NC(=O)c1cc(F)ccc1Nc1nc(NC2CCC(O)CC2)ncc1Cl` (stereo not given) here?
**A.** Its IC50 is 5 µM.

**Q.** What about the IC50 [1] of the same compound?
**A.** Its IC50 is 1.6 µM.

**Q.** And the IC50 [2]?
**A.** The IC50 was 1.6 µM.

**Q.** `C=CCn1nc([N+](=O)[O-])nc1Oc1ccc(Cl)cc1Cl` was tested. Which IC50 did it give?
**A.** The IC50 was 0.25 µM.

**Q.** What about the IC50 [1] of the same compound?
**A.** Its IC50 is > 50 µM.

**Q.** What about the IC50 [2] of the same compound?
**A.** The IC50 was 0.13 µM.

**Q.** `Cc1cc(NC(=O)C2CC2)ccc1OC1CCN(Cc2ccco2)CC1` was tested. Which IC50 did it give?
**A.** Its IC50 is 40 µM.

**Q.** What about the IC50 [1] of the same compound?
**A.** The IC50 was 40 µM.

**Q.** And the IC50 [2]?
**A.** The IC50 was 20 µM.

**Q.** With `O=C(Nc1ccc(Br)cn1)c1ccc(Cn2cnc([N+](=O)[O-])n2)cc1` as the compound, how does the IC50 read?
**A.** Its IC50 is 0.13 µM.

**Q.** And the IC50 [1]?
**A.** Its IC50 is > 50 µM.

**Q.** What about the IC50 [2] of the same compound?
**A.** Its IC50 is 0.079 µM.

**Q.** What does the source list for `CC(C)(C)Nc1nc(Nc2ccc3c(c2)CS(=O)(=O)C3)nc2[nH]ccc12`?
**A.** IC50: 32 µM; IC50 [1]: 1 µM; IC50 [2]: 20 µM

**Q.** `N#Cc1cccc(Nc2nccc(N3CCC(NS(=O)(=O)c4cccc(C#N)c4)CC3)n2)c1` was tested. Which IC50 did it give?
**A.** Its IC50 is 7.9 µM.

**Q.** What about the IC50 [1] of the same compound?
**A.** Its IC50 is 32 µM.

**Q.** And the IC50 [2]?
**A.** Its IC50 is 3.2 µM.

**Q.** What does the source list for `COc1cnc2ccc(=O)n(CCN3CCC(NC/C=C/c4cc(F)ccc4F)CC3)c2c1`?
**A.** IC50: 0.02 µM; IC50 [1]: 16 µM; IC50 [2]: 0.01 µM

**Q.** For `O=c1oc2ccccc2n1C1CCN(Cc2ccccc2-c2cccnc2)CC1`, which IC50 is on record?
**A.** The IC50 was 0.32 µM.

**Q.** What about the IC50 [1] of the same compound?
**A.** Its IC50 is > 50 µM.

**Q.** And the IC50 [2]?
**A.** The IC50 was 0.4 µM.

**Q.** Which IC50 does the source give for `CC(C)Nc1nc(Cl)nc2ccccc12` here?
**A.** The IC50 was 10 µM.

**Q.** What about the IC50 [1] of the same compound?
**A.** The IC50 was 7.9 µM.

**Q.** What about the IC50 [2] of the same compound?
**A.** The IC50 was 4 µM.

**Q.** `Cn1nc([N+](=O)[O-])nc1Oc1ccc(C(=O)c2ccccc2)cc1` was tested. Which IC50 did it give?
**A.** The IC50 was 0.32 µM.

**Q.** And the IC50 [1]?
**A.** The IC50 was > 50 µM.

**Q.** What about the IC50 [2] of the same compound?
**A.** Its IC50 is 0.13 µM.

**Q.** `CN(C)c1ncc(-c2cncn2CCOc2ccc(Cl)cc2)cn1` was tested. Which IC50 did it give?
**A.** The IC50 was 0.25 µM.

**Q.** What about the IC50 [1] of the same compound?
**A.** Its IC50 is > 50 µM.

**Q.** What about the IC50 [2] of the same compound?
**A.** Its IC50 is 0.2 µM.

**Q.** Which results are given for `O=C(COc1ncnc2cc([N+](=O)[O-])ccc12)NC(=O)NC1CCCCC1`?
**A.** IC50: 1 µM; IC50 [1]: > 50 µM; IC50 [2]: 0.5 µM

**Q.** With `Cc1ccc(C)c(-n2nnnc2Sc2nc([N+](=O)[O-])nn2C)c1` as the compound, how does the IC50 read?
**A.** Its IC50 is 0.79 µM.

**Q.** What about the IC50 [1] of the same compound?
**A.** The IC50 was > 50 µM.

**Q.** And the IC50 [2]?
**A.** The IC50 was 0.25 µM.

**Q.** `NC(=O)c1ccsc1NC(=O)c1ccc([N+](=O)[O-])s1` was tested. Which IC50 did it give?
**A.** The IC50 was 0.13 µM.

**Q.** What about the IC50 [1] of the same compound?
**A.** The IC50 was > 50 µM.

**Q.** What about the IC50 [2] of the same compound?
**A.** The IC50 was 0.1 µM.

**Q.** For `COc1ccc(Nc2nc(NC3CCC(O)CC3)ncc2Br)c(C(N)=O)c1` (stereo not given), which IC50 is on record?
**A.** The IC50 was 3.2 µM.

**Q.** And the IC50 [1]?
**A.** The IC50 was 0.79 µM.

**Q.** And the IC50 [2]?
**A.** Its IC50 is 2 µM.

**Q.** What does the source list for `O=C(O)[C@H]1C[C@@H]1c1ccc(-c2ccc(CN(CCc3ccccn3)C(=O)C3CCC3)cc2)cc1`?
**A.** IC50: 32 µM; IC50 [1]: > 50 µM; IC50 [2]: 32 µM

**Q.** What does the source list for `Cc1cc(Nc2cc(C3CC3)[nH]n2)nc(N2CCC[C@H]2C(N)=O)n1`?
**A.** IC50: 0.063 µM; IC50 [1]: 0.13 µM; IC50 [2]: 0.02 µM

**Q.** How did the IC50 turn out when `CS(=O)(=O)c1ccccc1C(=O)N(Cc1ccccc1)c1ccccc1` was run?
**A.** Its IC50 is > 50 µM (inactive).

**Q.** And the IC50 [1]?
**A.** The IC50 was > 50 µM.

**Q.** And the IC50 [2]?
**A.** The IC50 was 40 µM.

**Q.** Which results are given for `O=c1cc(NCCCNCc2cc(C(F)(F)F)cs2)[nH]c2ccccc12`?
**A.** IC50: > 50 µM (inactive); IC50 [1]: 32 µM; IC50 [2]: 5 µM

**Q.** How did the IC50 turn out when `Cc1ccc(S(=O)(=O)Cn2nnnc2C(c2cccnc2)N2CCN(c3ccccc3)CC2)cc1` (stereo not given) was run?
**A.** Its IC50 is 0.32 µM.

**Q.** What about the IC50 [1] of the same compound?
**A.** The IC50 was > 50 µM.

**Q.** And the IC50 [2]?
**A.** The IC50 was 0.32 µM.
